# Source: US9241928B2, “Antimicrobial compounds” (The General Hospital Corporation, priority 2009, dated 2016)
# Columns and labels:
# E. faecalis MMH594 = assay: MIC assay, E. faecalis in vitro; type: cell-based; settings: Enterococcus faecalis; E. faecalis MMH594 in 20% BHI, 80% M9, 37° C., 15 hours, scored by eye
# Method: A culture of E. faecalis MMH594 was grown overnight in BHI broth to stationary phase at 37° C. with aeration. The culture was diluted to an approximate density of […] in worm infection media (20% BHI, 80% M9 buffer). 12.5 μl of the bacterial culture dilution was inoculated into 384-well plates containing 12.5 μl of 2-fold serial dilutions of a test compound. […] Plates were incubated at 37° C. for 15 hours and scored by eye for bacterial growth.
# [1] = tested on: a Staphylococcus aureus strain; assay: Bacterial killing, Staphylococcus aureus strain (data not shown); type: cell-based
# [2] = tested on: C. elegans infected with E. faecalis; assay: Dose response time courses in the C. elegans-E. faecalis infection assay; type: in vivo, Caenorhabditis elegans; settings: Effective Concentration: survival significantly different from mock-treated, p-value <0.05, logrank; read-out: EC
# Method: glp-4(bn2); sek-1 (km4) mutant worms were grown to gravid adult stage. 1,000 worms at the L1 stage were grown for 5.2 days at 15° C. on 9-cm plates of SK agar media spread with a lawn of E. coli strain HB101. Embryos from the gravid adults were isolated by a previously described hypochlorite method (see Tan et al., (1999) Proc. Natl. Acad. Sci. USA 96, 715-720) and hatched at 15° C. for 2 days. Approximately 4,500 of the Ll hatchlings were grown on each 9-cm plate of SK-NS agar (SK media with 62.5 U/ml nystatin and 100 μg/ml streptomycin) and with lawns of E. coli HB101. These worms were grown at 25° C. for 52 hours to generate sterile, young adults.
# A culture of E. faecalis MMH594 was grown in BHI broth (BD Difco) with 80 μg/ml kanamycin at 37° C. for 6 hours and 100 μl of the culture were spread onto each 9-cm plate of BHI agar containing 80 μg/mlkanamycin. Lawns of E. faecalis were grown at 25° C. for 16 hours and transferred to 15° C. for 8 hours.
# Sterile adult worms were resuspended in M9 buffer and washed twice with M9 in a 1:10 ratio to remove E. coli. 8,000 worms were pipetted onto each lawn of E. faecalis and incubated 15 hours at 15° C. After infection, the worms were resuspended in M9 and used as described below. 384-well plates (Corning #3712) were filled with 55 μl media (see below) using a Thermo Scientific MULTIDROP Combi reagent dispenser. 0.3 μl of a candidate compound in DSMO were pin transferred into each well using a CyBio CYBI-Well vario transfer system. The plates were agitated using an Eppendorf MIXMATE at 1,800 rpm for 15 seconds. Using the Union Biometrica Complex Object Parametric Analyzer and Sorter (COPAS) BIOSORT worm sorter according to manufacturer's protocols, 15 of the infected worms were transferred to each well in a total volume of approximately 15 μl. Total volume per well is 70 μl/well with a final composition of the media being 20% BHI, […], 80 μg/ml kanamycin, 62.5 U/ml nystatin, 1% DMSO, and 19% sheath solution (Union Biometrica Part #300-5101-000). Plates were vortexed for 5 seconds, centrifuged at 1000×g for 10 seconds, and sealed with gas permeable membranes (BREATHEASY Diversified). Plates were placed in a single layer on the top shelves in a 26.3° C. incubator at 85% relative humidity (RH) and incubated without agitation for 5 days.
# The dose dependence of certain antimicrobial compounds identified by the assay above were studied. These compounds were purchased in a larger amount from commercial sources. For each of these compounds, an infection assay was performed essentially as described above at different concentrations except that SYTOX staining was not used. Instead, bright-field images of the wells were acquired at daily time points and scored manually for worm survival by analyzing worm body positioning. […] All compounds used in this assays were confirmed for their identity and purity by liquid chromatography/mass spectrometry.
# [3] = tested on: a different Enterococcus faecalis strain; assay: Bacterial killing, different Enterococcus faecalis strain (data not shown); type: cell-based
# [4] = tested on: E. faecalis strain MMH594; assay: Antimicrobial (bacterial killing) assay; type: cell-based, Enterococcus faecalis; settings: mM concentrations, 1 to 30 minutes, room temperature
# Method: Compounds 6, 7, 15 were purchased from TimTec and ChemDiv, dissolved in DMSO at a concentration of 5 or 10 mg/ml, and further diluted in DMSO as indicated. E. faecalis strain MMH594 was grown overnight with aeration at 37° C. in Bacto brain heart infusion (BHI) broth (Becton Dickinson), transferred to ice, and washed in phosphate-buffered saline (PBS; pH 7.2). Equal volumes of a dissolved compound and bacteria were mixed, incubated at room temperature for 1 to 30 minutes, ten-fold serially diluted in PBS, and plated in […] droplets on BHI agar plates. Plates were incubated at room temperature until colonies were visible.
# E. faecalis strain V583 [5] = assay: Biofilm maintenance assay (crystal violet); type: cell-based, Enterococcus faecalis; settings: 10 μg/ml added to biofilm established for 24 hours
# Method: To test for the efficacy of candidate compounds on biofilm maintenance, a bacterial culture of OD600=0.025 was grown in 96-well polystyrene plates for 24 hours as described above to establish biofilm mass prior to the addition of candidate compounds dissolved in DMSO at a final concentration of 10 μg/ml. The plates were then processed as described above.
# Drosophila infection = assay: Drosophila infection-survival bioassay (data not shown); type: in vivo
# E. faecalis strain V583 [6] = assay: Biofilm formation assay (crystal violet); type: cell-based, Enterococcus faecalis; settings: 10 μg/ml, 24 hours
# Method: To test the efficacy of candidate compounds on biofilm formation, a dilute bacterial culture of Enterococcus faecalis was incubated with candidate compounds in polystyrene plates and the level of biofilm formation was quantified by measuring the amount of crystal violet absorbed by the biofilm mass attached to plastic. First, E. faecalis strain V583 was grown at 37° C. for 16 hours in Tryptic Soy Broth (TSB) with 1% glucose. The bacterial culture was diluted to OD600=0.025 in fresh medium and was dispensed into 96-well polystyrene plates. Candidate compounds dissolved in dimethylsulfoxide (DMSO) were added to the wells to provide a final concentration of 10 μg/ml and the plates were incubated statically at 37° C. for 24 hours. After incubation, the medium was aspirated, the planktonic cells were removed by washing with phosphate buffered saline (PBS), and the plates were inverted and dried for 1 hour at room temperature. The biofilm mass was stained with 0.2% crystal violet for 15 minutes and extraneous crystal violet was washed away with PBS. The crystal violet absorbed by the biofilm was extracted with an 80% ethanol, 20% acetone mixture and the absorbance at 595 nm (OD595) was read with a spectrophotometer.
# T24B8.5::GFP = assay: Immune GFP reporter induction, transgene acIs219; type: in vivo, Caenorhabditis elegans; settings: compound-exposed versus DMSO-exposed animals, visual
# Source text: (§1) Caenorhabditis elegans strains were maintained on Escherichia coli OP50 as described in Brenner, Genetics, 1974, 77:71-94. Wildtype N2 nematodes carrying integrated transgenes acIs219 (AU78), acIs101(AY101), agIs17(AU133), or agIs26 (AU185) (see (1) Shivers, et al., PLoS. Genet. 2010, 6: e1000892, (2) Bolz et al., J. Biol. Chem. 2010, 285:10832-40, (3) Estes et al., Proc. Natl. Acad. Sci., 2010, 107:2153-8, and (4) Irazoqui et al., Proc. Natl. Acad. Sci., 2008, 105:17469-74) were used to assay the immunomodulatory activity of candidate compounds. For qRT-PCR experiments, RNA was extracted from synchronized young adult nematodes exposed to a candidate compound or DMSO (as a control) using TRI Reagent and reverse transcribed using the Retroscript kit (Ambion). This cDNA was then subjected to qRT-PCR analysis using SYBR green detection on a CFX1000 machine (Bio-Rad, http://www.bio-rad.com). Primers for qRT-PCR were obtained from published sequences (see Irazoqui et al., Proc. Natl. Acad. Sci., 2008, 105:17469-74 and Troemel et al., PLoS Genet. 2006, 2:e183). […] Fold change was calculated using the Pfaffl method (see Pfaffl et al., Nucleic Acids Res., 2001, 29:e45).
# Without wishing to be bound by theory, it was hypothesized that a subset of these compounds cured nematode infection by directly activating the innate immune response of the animal. To test this hypothesis, a multi-faceted approach was used. First, the inventors studied four C. elegans strains in which the promoter of the nematode immune response genes T24B8.5, F35E12.5, irg-1 and clec-60 were individually fused to GFP, generating transgenes acIs219 (AU78), acIs101(AY101), agIs17(AU133), or agIs26 (AU185), respectively, thereby allowing a visual readout of gene activity in each strain. Using these reporter strains, the ability of 33 compounds previously shown to have anti-Enterococcal killing activity in the C. elegans infection assay (24 of which have been described above) were tested for their ability to modulate the nematode immune response.
# C17H12.8 = assay: qRT-PCR of immune response gene expression; type: in vivo, Caenorhabditis elegans; settings: 20 μg/mL versus DMSO
# Source text: as §1
# (§2) By using the assay described above, the inventors identified five compounds (i.e., Compounds 11, 18, 20, 25, and 26) that robustly and reproducibly activated the immune GFP reporters (see FIG. 5 and Table 3) or activated selected immune response genes as determined by quantitative RT-PCR analysis (see Table 4). For the latter experiments, RNA was isolated from wild-type C. elegans N2 or pmk-1 mutant animals exposed to the candidate immunomodulatory compounds at 20 μg/mL and from animals exposed to DMSO. The inventors tested several immune response genes in compound-exposed animals that are known to be regulated by PMK-1, the p38 Mitogen Acitvated Protein kinase homolog, an evolutionary-conserved, central regulator of nematode immunity. The inventors also used qRT-PCR to measure the activation of several immune response genes that are known to be activated independently of PMK-1. […] Thus, without wishing to be bound by theory, it is believed that a subset of the compounds identified in the screen for novel anti-infective compounds directly stimulate the immune response of the nematode and that these compounds act both by directly stimulating the PMK-1 pathway and by unidentified parallel immune response pathways.
# F53E10.4 = assay: qRT-PCR of immune response gene expression; type: in vivo, Caenorhabditis elegans; settings: 20 μg/mL versus DMSO
# Source text: as §1, §2
# F56D6.2 = assay: qRT-PCR of immune response gene expression; type: in vivo, Caenorhabditis elegans; settings: 20 μg/mL versus DMSO
# Source text: as §1, §2
# F35E12.5 = assay: qRT-PCR of immune response gene expression; type: in vivo, Caenorhabditis elegans; settings: 20 μg/mL versus DMSO
# Source text: as §1, §2
# C49G7.5 = assay: qRT-PCR of immune response gene expression; type: in vivo, Caenorhabditis elegans; settings: 20 μg/mL versus DMSO
# Source text: as §1, §2
# irg-1 = assay: qRT-PCR of immune response gene expression; type: in vivo, Caenorhabditis elegans; settings: 20 μg/mL versus DMSO
# Source text: as §1, §2
# T24B8.5 = assay: qRT-PCR of immune response gene expression; type: in vivo, Caenorhabditis elegans; settings: 20 μg/mL versus DMSO
# Source text: as §1, §2
# immune response genes = assay: qRT-PCR of immune response genes, PMK-1 dependence (overall); type: in vivo, Caenorhabditis elegans; settings: 20 μg/mL, N2 or pmk-1 mutant animals
# Source text: as §1
# By using the assay described above, the inventors identified five compounds (i.e., Compounds 11, 18, 20, 25, and 26) that robustly and reproducibly activated the immune GFP reporters (see FIG. 5 and Table 3) or activated selected immune response genes as determined by quantitative RT-PCR analysis (see Table 4). For the latter experiments, RNA was isolated from wild-type C. elegans N2 or pmk-1 mutant animals exposed to the candidate immunomodulatory compounds at 20 μg/mL and from animals exposed to DMSO. The inventors tested several immune response genes in compound-exposed animals that are known to be regulated by PMK-1, the p38 Mitogen Acitvated Protein kinase homolog, an evolutionary-conserved, central regulator of nematode immunity. The inventors also used qRT-PCR to measure the activation of several immune response genes that are known to be activated independently of PMK-1. […]
compound,measurement,setting,value
O=C(O)C1CC(=O)N(CCC23CC4CC(CC(C4)C2)C3)/C(=N\c2ccc(Cl)cc2)S1 (stereo not shown) [Compound 6],MIC,E. faecalis MMH594,6.25 µg/mL
same,killing of a Staphylococcus aureus strain,[1],killed
same,minimal effective concentration,[2],0.39 µg/mL
same,killing of a different Enterococcus faecalis strain,[3],killed
same,bactericidal activity (FIGS. 7A and 7B),[4],rapid killing of bacteria
same,"biofilm maintenance (OD595, FIG. 3B)",E. faecalis strain V583 [5],disrupted biofilm once it was formed
same,bactericidal activity in Drosophila infection-survival bioassay,Drosophila infection,showed bactericidal activity
same,"biofilm formation (OD595, FIG. 3A)",E. faecalis strain V583 [6],prevented E. faecalis biofilm formation
O=C(O)CSCC(=O)N1CCn2c3c(c4cc(C5CCCCC5)ccc42)CCCC31 (stereo not shown) [Compound 15],killing of a Staphylococcus aureus strain,[1],killed
same,killing of a different Enterococcus faecalis strain,[3],killed
same,bactericidal activity (FIGS. 7A and 7B),[4],rapid killing of bacteria
same,bactericidal activity in Drosophila infection-survival bioassay,Drosophila infection,showed bactericidal activity
CC(C)(c1ccc(NS(=O)(=O)C(F)(F)F)cc1)c1ccc(C(C)(C)c2cccc(NS(=O)(=O)C(F)(F)F)c2)cc1 [Compound 18],immune reporter induction T24B8.5::GFP,T24B8.5::GFP,+
same,"C17H12.8 expression, average fold-change",C17H12.8; genotype N2,10.2 fold-change
same,"C17H12.8 expression, average fold-change",C17H12.8; genotype pmk-1(km25),0.3 fold-change
same,"F53E10.4 expression, average fold-change",F53E10.4; genotype N2,0.2 fold-change
same,"F53E10.4 expression, average fold-change",F53E10.4; genotype pmk-1(km25),0.3 fold-change
same,"F56D6.2 expression, average fold-change",F56D6.2; genotype N2,2.2 fold-change
same,"F56D6.2 expression, average fold-change",F56D6.2; genotype pmk-1(km25),1.0 fold-change
same,"F35E12.5 expression, average fold-change",F35E12.5; genotype N2,10.6 fold-change
same,"F35E12.5 expression, average fold-change",F35E12.5; genotype pmk-1(km25),0.4 fold-change
same,"C49G7.5 expression, average fold-change",C49G7.5; genotype N2,11.1 fold-change
same,"C49G7.5 expression, average fold-change",C49G7.5; genotype pmk-1(km25),57.4 fold-change
same,"irg-1 expression, average fold-change",irg-1; genotype N2,1.5 fold-change
same,"irg-1 expression, average fold-change",irg-1; genotype pmk-1(km25),4.4 fold-change
same,"T24B8.5 expression, average fold-change",T24B8.5; genotype N2,2.6 fold-change
same,"T24B8.5 expression, average fold-change",T24B8.5; genotype pmk-1(km25),0.3 fold-change
same,PMK-1 dependence of immune response gene activation,immune response genes,activated at least one immune response gene in the nematode in a manner independent of PMK-1
